Assay [1] deals with squamous cell carcinoma and prostatic adenocarcinoma. To be noted: in vitro; cited from earlier work.
Another assay relates to HL60. Nature of the assay: Transcriptome (microarray) analysis of treated HL60 cells. It is filed as cell-based, human. The settings on record: for number of genes modulated by the three different agents: HL60 cell line, genes affected by DFO, DFX and mAb A24 together.
In another assay the test system is AML cells lines. Put plainly: CD14 and CD11b monocytic marker expression in AML cell lines. It is filed as cell-based. How it is done:
Peripheral blood cells from AML patients and healthy donors was analyzed after obtaining their written informed consent (please refer to supplementary table 2 for additional information). Peripheral blood was collected at the initial diagnosis previously to treatment administration. Mononuclear cells were separated by Ficoll-hypaque (PAA laboratories) density centrifugation and resuspended in IMDM medium (Invitrogen) supplemented with 15% fetal calf serum (FCS) (Hyclone), 100 ng/ml Stem Cell Factor (SCF), 10 ng/ml Interleukin 3 (IL-3) and 25 ng/ml FLT3-L (all purchased from R&D Systems). HL60 and U937 cell lines were a kind gift from J. M. Cayuela (Saint-Louis Hospital, Paris). Cells were cultured in RPMI-1640 medium (Invitrogen) supplemented with 5% FCS and antibiotics.
The ability of iron deprivation to override blockade of AML cells differentiation was tested. In AML cells lines, monocytic markers CD14 and CD11b (which are induced by the vitamin D3 (VD), a monocytic differentiating agent) were induced by iron deprivation by A24 mAb, DFO and DFX. Induction of cell surface markers was accompanied by characteristic cytological modifications of monocytes. Iron deprivation induced cytoplasm enlargement, loss of cytoplasm basophilia and azurophilic granules. […]

Another assay deals with c-Jun, c-Fos. Put plainly: c-Jun and c-Fos expression in HL60 cells. It is filed as cell-based. To be noted: VD 250 nM, A24 10 μg/ml, DFO 5 μM, DFX 3 μM. How it is done:
FIG. 4 depicts the change in c-Jun expression following treatment of HL60 cells with vitamin D3 (VD, 250 nM), A24 (A24, 10 μg/ml), deferoxamine (DFO, 5 μM) or deferasirox (DFX, 3 μM).
FIG. 5 depicts the c-Fos and c-Jun mRNA levels (evaluated by quantitative RT-PCR and normalized to GAPDH mRNA levels) in HL60 cells treated for 48 h with A24 (A24, 10 μg/ml); deferoxamine (DFO, 5 μM); or deferasirox (DFX, 3 μM) (mean±SEM, n=4).
Total RNA was extracted using Nucleospin RNA II (Macherey-Nagel). Following DNAse treatment, first-strand cDNA was synthesized using a SuperScript II reverse transcriptase (Invitrogen). Quantitative real-time PCR was performed with a Chromo-IV PCR System (MJ Research) and PCR products were quantified using SybrGreen Technology (Jumpstart mastermix, Sigma Aldrich). Results of real-time quantitative PCR were interpreted using the delta-delta Ct method (Livak et al. (2001) Methods 25:402-408). The complete list of primer sequences used is available in supplementary data section, table 4.
By comparing (with a non-supervised analysis) the pattern of genes induced by VD and iron-chelating agents, a high similarity was found among modulated genes. Thirty of the 105 genes modulated by iron deprivation were shared with VD modified genes. This finding underscores the potential similarities between both differentiation approaches. […]

The text below walks through data of patent US20120135002A1, “Compounds and Methods for the Treatment of Cancer” (priority 2009, published 2012).

Take `C=C1/C(=C\C=C2/CCC[C@]3(C)[C@@H]([C@H](C)CCCC(C)(C)O)CC[C@@H]23)C[C@@H](O)C[C@@H]1O` [calcitriol, 1α,25-dihydroxycholecalciferol D3]: the antiproliferative activity result in assay [1] is on record as “exhibits antiproliferative activity”.

In the case of `CC(=O)N(O)CCCCCNC(=O)CCC(=O)N(O)CCCCCNC(=O)CCC(=O)N(O)CCCCCN` [DFO], in the assay on HL60, the “number of genes modulated by the three different agents” value is on record as 105.

For `O=C(O)c1ccc(-n2nc(-c3ccccc3O)nc2-c2ccccc2O)cc1` [DFX, 4-[3,5-bis(2-hydroxyphenyl)-[1,2,4]triazol-1-yl]benzoic acid], the “number of genes modulated by the three different agents” value in the assay with HL60 is listed as 105. Also, the “monocytic markers CD14 and CD11b” value with AML cells lines is recorded as “induced”.

`C=C1CC[C@H](O)C/C1=C/C=C1\CCC[C@]2(C)[C@@H]([C@H](C)CCCC(C)C)CC[C@@H]12` [VD, cholecalciferol]: in the assay on HL60 (HL60, gene expression), the “markers of granulocyte differentiation / neutrophils (ELA2, PRTN3, CLC, AZU)” value is listed as “down-regulated” and the “markers of monocytes or activated macrophages (SERPINB8, ITGB2, TREML2, ITGAM)” value is “up-regulated”. In addition, the “similarity of genes targeted by iron deprivation with VD” value in the assay on HL60 (genome screening) turned out to be 30%. Further, in the assay on HL60 (non-supervised analysis), the “genes of the 105 modulated by iron deprivation shared with VD modified genes” value is listed as “Thirty”. For the same compound, the “monocytic markers CD14 and CD11b” value in the assay on AML cells lines is recorded as “induced”. The c-Jun gene expression result in the assay on c-Jun, c-Fos is recorded as “induced”.
